{"source": "patent US9783590B2", "about": "(priority 2003, dated 2017)", "key": {"human subjects": {"tested_on": "human subjects", "assay": "PTC phenotype determination (blinded sorting taste threshold test)", "format": "in vivo", "source_text": "Subjects began tasting a solution of 1 micromolar PTC (solution #14) and proceeded in 2-fold increasing concentration increments (solutions 13, 12, 11 . . . ) until a bitter taste was perceived. Subjects then performed a blinded sorting test containing 3 cups of PTC solution and 3 cups of water. Raw taste threshold was the most dilute solution at which the subject could correctly sort all 6 cups. We also included a quinine threshold measurement according to Blakeslee & Salmon (Proc. Natl. Acad. Sci. USA 21, 84, 1935) to identify and exclude individuals with general deficits in bitter taste (aguesia). For dichotomous assignment of phenotype, we considered individuals unable to taste PTC before solution #6, i.e. at concentrations less than 267 micromolar PTC, to be non-tasters. Although the classic method includes corrections for age and sex, analysis of our raw PTC taste threshold data indicated only a modest sex effect, with females more sensitive than males (p=0.00324, proportion of variance explained=5.1%). No effect of age on PTC scores was observed. As a result, raw PTC threshold scores were used for all analyses.\nThe Utah C.E.P.H. families were enrolled in conjunction with the Utah Genetic Reference Project under University of Utah IRB approved protocol #6090-96, and consisted of individuals of Northern European ancestry. Subjects in the NIH replication sample were enrolled under NIH/NINDS IRB approved protocol # DC-01-230, and were of European, Asian, African American, and Native American ancestry. Human Diversity Panel DNAs (sub-Saharan African, Asian, and Southwest Native American) and primate DNAs were obtained from the Coriell Cell Repository, Camden, N.J. The Utah sample consists of 27 families comprising 269 individuals; both haplotype and phenotype information was available for 180 of these individuals. The NIH replication sample of consisted of 85 unrelated individuals of known haplotype and phenotype; 51 were European, 5 Pakistani, 23 East Asian, and 6 African-American. One African-American is not considered in the analysis due to a rare AAV/AAI diplotype. H is raw PTC score is 7."}, "T2R16": {"molecular_target": "T1, T2R16 (Homo sapiens, UniProt Q9NYV7)", "T1 sequence (Q9NYV7 1-291)": "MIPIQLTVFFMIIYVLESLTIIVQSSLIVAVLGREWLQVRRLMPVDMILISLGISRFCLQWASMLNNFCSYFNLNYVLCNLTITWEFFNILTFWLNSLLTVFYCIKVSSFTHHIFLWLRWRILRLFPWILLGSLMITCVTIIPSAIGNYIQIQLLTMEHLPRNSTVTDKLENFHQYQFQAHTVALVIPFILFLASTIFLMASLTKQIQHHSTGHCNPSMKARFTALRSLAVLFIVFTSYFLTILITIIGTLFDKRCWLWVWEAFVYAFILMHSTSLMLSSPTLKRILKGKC", "details": "in vitro cell based assays, Bufe et al. 2002; cited from earlier work"}}}
{"smiles": "NC(=S)Nc1ccccc1", "note": "[PTC, phenylthiocarbamide]", "values": [{"measurement": "mean PTC score", "setting": "human subjects; AVI homozygotes, NIH sample", "value": 1.86}, {"measurement": "mean PTC score", "setting": "human subjects; AVI homozygotes, Utah sample", "value": 4.31}, {"measurement": "mean PTC score", "setting": "human subjects; PAV heterozygotes, NIH sample", "value": 8.81}, {"measurement": "mean PTC score", "setting": "human subjects; PAV heterozygotes, Utah sample", "value": 9.65}, {"measurement": "mean PTC score", "setting": "human subjects; PAV homozygotes, NIH sample", "value": 10.00}, {"measurement": "mean PTC score", "setting": "human subjects; PAV homozygotes, Utah sample, score = number of most dilute solution correctly sorted (#14 = 1 micromolar, 2-fold steps)", "value": 10.69}, {"measurement": "raw PTC score", "setting": "human subjects; one subject, AAV/AAI diplotype, NIH sample", "value": 7}]}
{"smiles": "OCc1ccccc1O[C@@H]1O[C@H](CO)[C@@H](O)[C@H](O)[C@H]1O", "note": "[salicin]", "values": [{"measurement": "receptor response to tastant", "setting": "T2R16", "value": "responds"}]}
